The record followed here is patent US20040191208A1, “Cosmetic composition for men's skin care and hair care” (Laboratoires Clarins, a corporation of France, priority 2001, published 2004).

Experiment [1] has as its system synthesis of prostaglandins (PGE2). Description: PGE2 synthesis induced by PMA in cultured keratinocytes (approach 2), ELISA, evaluating inhibition of cyclooxygenase. The format is cell-based, human. To be noted: indomethacin 1 μM. An excerpt: (§1) In the initial steps of the induction of inflammation, the arachidonic acid stored in the cell membranes is liberated. Once the arachidonic acid has been liberated, it can follow different metabolic pathways. The pathways include: the cyclooxygenase enzyme pathway which leads to the prostaglandins, and the lipoxygenase enzyme pathway which leads to the leukotrienes. The anti-inflammatory activity of purslane extract was, therefore, tested in vitro by evaluating the inhibition of cyclooxygenase. The ELISA-based test employed made it possible to monitor the synthesis of prostaglandins (PGE2) in cultures of human keratinocytes. The cells were used at subconfluence with a cellular multiplication and an active metabolic activity. Two approaches were employed: approach 1: synthesis of the PGE2 intrinsic to the cultured cells; and approach 2: synthesis of the PGE2 induced chemically by PMA (phorbol myristate acetate), an inflammatory agent. Normal human keratinocytes were cultured at 37° C. for 48 hours in a defined medium in the presence of the following products: approach 1: -purslane extract (0.1%, 0.5%, 1% and 3% vol/vol) - aspirin 100 μM (anti-inflammatory, reference compound) approach 2: - purslane extract (0.1%, 0.5%, 1% and 3% vol/vol) - indomethacin 1 μM (anti-inflammatory, reference compound) - stimulation with PMA 1 μg/ml (after 24 hours of incubation). At the end of 48 hours, the different media were collected for quantitative determination of the PGE2. The protective capacity against the liberation of prostaglandins induced by the pro-inflammatory agent PMA was studied using approach 2.
For orientation: In an ELISA, binding on a coated surface is turned into a signal by an enzyme label.

Experiment [2] shares this test system. Briefly: PGE2 synthesis intrinsic to cultured keratinocytes (approach 1), ELISA, evaluating inhibition of cyclooxygenase. The class given is cell-based, human. To be noted: aspirin 100 μM.
Source text: as §1, with “PGE2.” for “PGE2. The protective capacity against the liberation of prostaglandins induced by the pro-inflammatory agent PMA was studied using approach 2.”

For `COc1ccc2c(c1)c(CC(=O)O)c(C)n2C(=O)c1ccc(Cl)cc1` [Indomethacin, indomethacin], in experiment [1] (Homo sapiens, Keratinocyte, PMA-induced PGE2, read-out: % inhibition of the liberation of PGE2), the inhibition at 1 µM worked out at 80%. Further, the “% control” value in experiment [1] (PGE2 relative to control, PMA-induced) is 21.0%. The “Pg PGE2/mg prot” value in experiment [1] (PMA 1 μg/ml stimulation after 24 h, 48 h) is 1683.9 Pg PGE2/mg prot. In addition, in experiment [1] (PMA-induced PGE2), the “% inhibition of the liberation of PGE2” value is given as 79.0%.

As to `CC(=O)Oc1ccccc1C(=O)O` [Aspirin, aspirin], the inhibition at 100 µM in experiment [2] (Homo sapiens, Keratinocyte, intrinsic PGE2, 48 h, read-out: % inhibition of the liberation of PGE2) was 60.3%. In experiment [2] (PGE2 relative to control, intrinsic PGE2, 48 h), the “% control” value is reported as 39.7%. In addition, the “Pg PGE2/mg prot” value in experiment [2] (normal human keratinocytes, 48 h, intrinsic PGE2) was 1968.2 Pg PGE2/mg prot.
